In PMC9124820, “In vitro evaluation of fenfluramine and norfenfluramine as victims of drug interactions” (Pharmacology Research & Perspectives, 2022):

Experiments:
[1] = Substrate loss and nFFA formation over time in human liver microsomes; format: in vitro ADME
From the text: Microsomes from a mixed‐gender pool of 200 non‐transplantable human livers (Sekisui XenoTech, LLC, Kansas City, KS) were characterized as described.[20], [21] Human recombinant CYP450s (rCYP450s) and control membranes from Escherichia coli transfected with empty expression plasmid or plasmid expressing nicotinamide adenine dinucleotide phosphate (hydrogen) (NADPH)‐CYP450 oxidoreductase without CYP450 enzymes were obtained from Cypex, Ltd. Metabolite identification and stability studies used human liver S9 fractions (containing both microsomal and cytosolic fractions of the cell) from pooled human liver (n = 50) and intestine (n = 10), pooled canine liver (n = 8) and intestine (n = 7), and pooled rat liver (n = 454) and intestine (n = 199). All rCYP450 enzymes except rCYP1A2 and rCYP2D6 were expressed with cytochrome b5.
For FFA and nFFA reaction phenotyping experiments, LC‐MS/MS experiments were performed using an API 4000 QTRAP or QTRAP 5500 mass spectrometer (SCIEX) with positive electrospray ionization. Chromatography was performed using an Atlantis dC18 analytical column (100 × 2.1 mm, 5 µm; Waters Corporation). Mobile phases were 0.2% v/v formic acid in water and 0.2% v/v formic acid in methanol. FFA and nFFA were eluted at a flow rate of 0.5 mL/min with a linear gradient of 40%−95% methanol from 0.20−2.1 min. The mass transitions monitored were 232.0>109.0 for FFA, 204.0>159.0 for nFFA, 348.0>330.0 for 1’‐hydroxymidazolam‐d4 internal standard (FFA reaction phenotyping), and 262.0>244.0 for hydroxybupropion‐d6 internal standard (nFFA reaction phenotyping). Analyst Instrument Control and Data Processing software (v. 1.6.1) was used for collecting and integrating data (SCIEX). Calibration curves ranging from 1.25 µM−0.01 µM were used to quantify nFFA. Relative quantitation was used to approximate the amount of FFA test material used.
The line of best‐fit for calibration standards was calculated by weighted (1/x) linear regression based on peak‐area ratios of analyte to the internal standard using Analyst Instrument Control and Data Processing software (version 1.6.1; SCIEX). Mean analyte peak‐area ratio at each time point was normalized to controls at t = 0 min (100%).

OAT1 = biological target: T1, OAT1 (Homo sapiens, UniProt Q4U2R8); assay: Transporter substrate determination, uptake in HEK293-OAT1 cells; format: in vitro ADME; conditions: for Maximum Ratio (uptake in transporter‐expressing cells to empty‐vector control cells): HEK293‐OAT1, 0.1, 1, 10 µM, threshold ≥2‐fold; for substrate of the transporter: OAT1
T1 construct: host or cells: HEK293
T1 sequence (Q4U2R8 1-563): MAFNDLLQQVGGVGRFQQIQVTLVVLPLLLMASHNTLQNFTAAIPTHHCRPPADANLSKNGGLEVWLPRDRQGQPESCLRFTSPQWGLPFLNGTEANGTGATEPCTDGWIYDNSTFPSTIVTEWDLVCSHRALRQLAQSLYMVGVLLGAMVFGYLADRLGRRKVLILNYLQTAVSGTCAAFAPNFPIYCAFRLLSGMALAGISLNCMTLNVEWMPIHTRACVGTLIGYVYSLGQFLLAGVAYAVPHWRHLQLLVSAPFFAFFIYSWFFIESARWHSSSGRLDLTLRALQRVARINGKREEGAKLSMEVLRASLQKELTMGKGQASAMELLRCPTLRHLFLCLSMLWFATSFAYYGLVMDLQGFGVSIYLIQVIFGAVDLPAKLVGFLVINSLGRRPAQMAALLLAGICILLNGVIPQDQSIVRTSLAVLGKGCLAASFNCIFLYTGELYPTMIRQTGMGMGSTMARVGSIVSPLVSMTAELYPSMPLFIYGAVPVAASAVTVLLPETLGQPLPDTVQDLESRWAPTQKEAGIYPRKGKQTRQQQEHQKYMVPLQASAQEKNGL
Protocol: LC‐MS/MS analyses to assess metabolic stability and identify the transporter substrate were performed using an API 4000 QTRAP mass spectrometer (SCIEX, Framingham, MA) with electrospray ionization in positive mode. Chromatography was performed using an Atlantis dC18 analytical column (100 × 2.1 mm, 5 µm; Waters Corporation, Milford, MA). Mobile phases were 0.2% v/v formic acid in water and 0.2% v/v formic acid in acetonitrile. For metabolic stability experiments, FFA and metabolites were eluted at a flow rate of 0.6 mL/min, with a linear gradient of 20%−80% acetonitrile from 0.30−2.0 min. For transporter substrate experiments, the gradient was slightly modified to achieve suitable chromatography. The mass transitions monitored were 232.0 > 159.0 for FFA and 348.0 > 330.0 for 1ʹ‐OH‐midazolam‐d4 internal standard.
FFA and nFFA were evaluated as substrates of the transporters breast cancer resistance protein (BCRP), organic anion transporter (OAT)1, OAT3, organic cation transporter (OCT)2, MATE1, MATE2‐K, and P‐glycoprotein multidrug transporter (P‐gp; also known as MDR1 and ABCB1), according to published methods.[25], [26], [27], [28], [29] Madin‐Darby canine kidney (MDCKII)‐BCRP cells (Netherlands Cancer Institute, Amsterdam, Netherlands) or human embryonic kidney (HEK)293 cells transfected with other transporters (Sekisui Medical Co., Ltd., Tokyo, Japan) were used. Transporter‐transfected and control cells were incubated with FFA or nFFA (0.1, 1, or 10 μM), and the amount of FFA and nFFA accumulated in the cells was measured by LC‐MS/MS as described above. The accumulation of positive control substrates in the presence and absence of an inhibitor served as a positive control for transporter function. […] BCRP substrate determination was made by bi‐directional permeability across MDCKII‐BCRP and control cells cultured on 24‐well transwell plates. Incubation medium containing probe substrate was added. Ten minutes later, transepithelial electrical resistance (TEER) was recorded and cells were preincubated at 37 ± 2°C for 30−60 min before FFA or nFFA or positive control substrate with the solvent control or positive control inhibitor was added to the donor (apical) chamber. […] Samples containing FFA, nFFA, or probe substrate were mixed with internal standard and analyzed by LC‐MS/MS. […] An aliquot was added to 96‐well plate containing scintillation fluid that was analyzed by a MicroBeta^2 scintillation counter (Perkin Elmer, Waltham, MA). Protein concentration was determined by a bicinchoninic acid (BCA) protein assay according to the manufacturer’s protocol (Thermo Fisher Scientific, Waltham, MA). Non‐radiolabeled compounds were resuspended in a 50:50 v/v methanol:water solution containing internal standard and were analyzed by LC‐MS/MS. […]

P‐gp = P‐gp (Homo sapiens, UniProt P08183); assay: Transporter substrate determination, efflux ratio across Caco-2 cells (P-gp)
P‐gp, sequence (P08183 whole entry): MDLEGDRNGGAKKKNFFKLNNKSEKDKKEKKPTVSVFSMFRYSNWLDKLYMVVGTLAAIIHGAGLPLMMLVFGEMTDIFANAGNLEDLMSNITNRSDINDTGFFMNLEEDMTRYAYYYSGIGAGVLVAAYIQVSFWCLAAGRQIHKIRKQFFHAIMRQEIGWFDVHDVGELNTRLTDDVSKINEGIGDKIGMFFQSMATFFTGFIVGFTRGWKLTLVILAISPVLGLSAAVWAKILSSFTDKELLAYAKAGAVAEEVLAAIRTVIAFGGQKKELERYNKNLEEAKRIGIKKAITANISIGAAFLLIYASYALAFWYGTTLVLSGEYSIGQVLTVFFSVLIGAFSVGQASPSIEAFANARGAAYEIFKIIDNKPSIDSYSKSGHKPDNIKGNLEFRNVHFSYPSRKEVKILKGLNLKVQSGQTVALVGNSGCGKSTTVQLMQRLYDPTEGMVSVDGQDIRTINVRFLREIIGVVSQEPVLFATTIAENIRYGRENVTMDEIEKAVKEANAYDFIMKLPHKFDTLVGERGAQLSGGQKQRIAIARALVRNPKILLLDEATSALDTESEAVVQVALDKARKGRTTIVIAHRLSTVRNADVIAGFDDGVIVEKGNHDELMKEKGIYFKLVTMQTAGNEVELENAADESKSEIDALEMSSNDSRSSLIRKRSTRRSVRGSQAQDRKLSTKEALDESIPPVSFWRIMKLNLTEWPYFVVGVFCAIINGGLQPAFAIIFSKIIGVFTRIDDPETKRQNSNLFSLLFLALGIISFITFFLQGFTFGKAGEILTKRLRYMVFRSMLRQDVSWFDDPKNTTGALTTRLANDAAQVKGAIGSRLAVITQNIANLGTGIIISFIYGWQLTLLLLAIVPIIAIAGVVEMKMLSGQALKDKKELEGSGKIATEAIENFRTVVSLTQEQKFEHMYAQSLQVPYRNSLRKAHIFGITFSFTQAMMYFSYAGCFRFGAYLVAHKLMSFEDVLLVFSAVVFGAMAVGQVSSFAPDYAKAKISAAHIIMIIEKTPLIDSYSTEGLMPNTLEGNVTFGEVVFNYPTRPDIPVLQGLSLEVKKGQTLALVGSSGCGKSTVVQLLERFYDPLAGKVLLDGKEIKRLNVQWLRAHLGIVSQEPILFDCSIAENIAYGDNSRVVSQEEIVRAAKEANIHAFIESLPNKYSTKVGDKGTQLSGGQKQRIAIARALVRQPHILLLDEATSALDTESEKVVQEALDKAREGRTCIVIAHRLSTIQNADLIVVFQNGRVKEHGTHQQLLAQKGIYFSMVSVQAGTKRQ

SMILES | FFA substrate loss ([1]; human liver microsomes 1 mg protein/mL, 1−100 µM FFA, all concentrations and times tested) [%] | substrate remaining in the absence of NADPH ([1]; human liver microsomes, FFA, absence of NADPH) | Maximum Ratio (uptake in transporter‐expressing cells to empty‐vector control cells) (OAT1) | substrate of the transporter (OAT1) | substrate of the transporter (P‐gp) | nFFA substrate loss in the absence of microsomal protein ([1]; control without microsomal protein) | nFFA substrate loss in the absence of the NADPH‐generating system ([1]; human liver microsomes, no NADPH-generating system) [%]
CCNC(C)Cc1cccc(C(F)(F)F)c1 (racemic) [FFA, (RS)‐ethyl (α‐methyl‐3‐trifluoromethylphenethyl)amine] | ≤ 7.7 | ~ 100% | 1.22 | not substrates | not substrates |  | 
CC(N)Cc1cccc(C(F)(F)F)c1.Cl (stereo not shown) [nFFA, 1‐(3‐(trifluoromethyl)phenyl)propan‐2‐amine hydrochloride] |  |  | 1.13 | not substrates | not substrates | no substrate loss detected | 1.2
